Where two headings read alike, the source gives them in different places.
System: HCV 1b genotype
Assay: HCV replicon assay (HCV-neo replicon cells, wild-type)
Assay type: cell-based, Hepatitis C virus
Conditions: HCV 1b genotype replicon
Method in brief: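 Inhibition was tested in replicon-bearing cells, both wild-type HCV-neo and lines with NS5A resistance substitutions, using the O'Boyle et al. 2005 replicon method or luciferase-reporter formats.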

[1] = Hepatitis C virus, class symbols, read-out: EC50 Range against HCV 1b
[2] = Hepatitis C virus, class symbol, read-out: EC50 Range against HCV 1b
[3] = Hepatitis C virus, read-out: EC50 1b

Compound | EC50 [2] [nM] | other results
O=C(Nc1ccc(-c2cnc(-c3ccc(NC(=O)[C@@H]4CCCN4C(=O)c4ccc[nH]4)cc3)o2)cc1)[C@@H]1CCCN1C(=O)c1ccc[nH]1 [XY-33, (2S,2′S)-N,N′-(1,3-oxazole-2,5-diyldi-4,1-phenylene)bis(1-(1H-pyrrol-2-ylcarbonyl)-2-pyrrolidinecarboxamide)] |  | EC50 [1]: 1000 to 10000 nM
C[C@H](NC(=O)[C@@H](O)c1ccccc1)C(=O)Nc1ccc(-c2nnc(-c3ccc(NC(=O)[C@H](C)NC(=O)[C@@H](O)c4ccccc4)cc3)o2)cc1 [RK-24, (2S,2′S)-N,N′-(1,3,4-oxadiazole-2,5-diyldi-4,1-phenylene)bis(2-(((2S)-2-hydroxy-2-phenylacetyl)amino)propanamide)] | 100 to 999 | 
CSC[C@H](NC(=O)Cc1ccccc1)C(=O)Nc1ccc(-c2cnc(-c3ccc(NC(=O)[C@H](CSC)NC(=O)Cc4ccccc4)cc3)o2)cc1 [JG-14, (2R,2′R)-N,N′-(1,3-oxazole-2,5-diyldi-4,1-phenylene)bis(3-(methylsulfanyl)-2-((phenylacetyl)amino)propanamide)] | 100 to 999 | 
O=C(Nc1ccc(-c2nnc(-c3ccc(NC(=O)[C@@H]4CCCN4C(=O)C4CCC4)cc3)o2)cc1)[C@@H]1CCCN1C(=O)C1CCC1 [Example D-59, (2S,2′S)-N,N′-(1,3,4-oxadiazole-2,5-diyldi-4,1-phenylene)bis[1-(cyclobutylcarbonyl)-2-pyrrolidinecarboxamide]] | 1000 to 10000 | EC50 [3]: 5450 nM
O=C(Nc1ccc(-c2nnc(-c3ccc(NC(=O)[C@@H]4CCCCN4C(=O)OCc4ccccc4)cc3)o2)cc1)[C@@H]1CCCCN1C(=O)OCc1ccccc1 [RK-4, dibenzyl (2S,2′S)-2,2′-(1,3,4-oxadiazole-2,5-diylbis(4,1-phenylenecarbamoyl))di(1-piperidinecarboxylate)] | 100 to 999 | 
C[C@H](NC(=O)OCc1ccccc1)C(=O)Nc1ccc(-c2n[nH]nc2-c2ccc(NC(=O)[C@H](C)NC(=O)OCc3ccccc3)cc2)cc1 [OL-18, [(1S)-1-methyl-2-oxo-2-[[4-[4-[4-[[(2S)-1-oxo-2-[[(phenylmethoxy)carbonyl]amino]propyl]amino]phenyl]-1H-1,2,3-triazol-5-yl]phenyl]amino]ethyl]-carbamic acid, phenylmethyl ester] | 4.57 to 99 | EC50 [3]: 92 nM
O=C(Nc1ccc(-c2cnc(-c3ccc(NC(=O)[C@@H]4CCCN4C(=O)[C@@H](O)c4ccccc4)cc3)o2)cc1)[C@@H]1CCCN1C(=O)[C@@H](O)c1ccccc1 [JG-20, (2S,2′S)-N,N′-(1,3-oxazole-2,5-diyldi-4,1-phenylene)bis(1-((2S)-2-hydroxy-2-phenylacetyl)-2-pyrrolidinecarboxamide)] | 4.57 to 99 | 
C[C@H](NC(=O)[C@](C)(O)c1ccccc1)C(=O)Nc1ccc(-c2nnc(-c3ccc(NC(=O)[C@H](C)NC(=O)[C@](C)(O)c4ccccc4)cc3)o2)cc1 [RK-31, (2R,2′R)-N,N′-(1,3,4-oxadiazole-2,5-diylbis(4,1-phenyleneimino((2S)-1-oxo-1,2-propanediyl)))bis(2-hydroxy-2-phenylpropanamide)] | 100 to 999 | 
CN(C)CC(=O)N1CCC[C@H]1C(=O)Nc1ccc(-c2cnc(-c3ccc(NC(=O)[C@@H]4CCCN4C(=O)CN(C)C)cc3)o2)cc1 [XY-5, (2S,2′S)-N,N′-(1,3-oxazole-2,5-diyldi-4,1-phenylene)bis(1-((dimethylamino)acetyl)-2-pyrrolidinecarboxamide)] |  | EC50 [1]: 1000 to 10000 nM
C[C@H](NC(=O)[C@H](O)c1ccccc1)C(=O)Nc1ccc(-c2cc(-c3ccc(NC(=O)[C@@H](C)NC(=O)[C@H](O)c4ccccc4)cc3)[nH]n2)cc1 [OL-44, (S)-2-((R)-2-hydroxy-2-phenylacetamido)-N-(4-(5-(4-((R)-2-((R)-2-hydroxy-2-phenylacetamido)propanamido)phenyl)-1H-pyrazol-3-yl)phenyl)propanamide] | < 4.57 | 
O=C(Nc1ccc(-c2cc(-c3ccc(NC(=O)[C@@H]4C=CCN4C(=O)CC4CCCC4)cc3)[nH]n2)cc1)[C@@H]1C=CCN1C(=O)CC1CCCC1 [OL-39, (2S,2′S)-N,N′-(1H-pyrazole-3,5-diyldi-4,1-phenylene)bis[1-(cyclopentylacetyl)-2,5-dihydro-1H-pyrrole-2-carboxamide]] | 1000 to 10000 | 
N#CC1(C(=O)N2CCC[C@H]2C(=O)Nc2ccc(-c3cnc(-c4ccc(NC(=O)[C@@H]5CCCN5C(=O)C5(C#N)CC5)cc4)o3)cc2)CC1 [XY-2, (2S,2′S)-N,N′-(1,3-oxazole-2,5-diyldi-4,1-phenylene)bis(1-((1-cyanocyclopropyl)carbonyl)-2-pyrrolidinecarboxamide)] |  | EC50 [1]: 100 to 999 nM
COCC[C@H](NC(=O)Cc1ccccc1)C(=O)Nc1ccc(-c2cnc(-c3ccc(NC(=O)[C@H](CCOC)NC(=O)Cc4ccccc4)cc3)o2)cc1 [JG-15, (2S,2′S)-N,N′-(1,3-oxazole-2,5-diyldi-4,1-phenylene)bis(4-methoxy-2-((phenylacetyl)amino)butanamide)] | 100 to 999 | 
COc1ccc2[nH]cc(CC(=O)N3CCC[C@H]3C(=O)Nc3ccc(-c4cnc(-c5ccc(NC(=O)[C@@H]6CCCN6C(=O)Cc6c[nH]c7ccc(OC)cc67)cc5)o4)cc3)c2c1 [XY-11, (2S,2′S)-N,N′-(1,3-oxazole-2,5-diyldi-4,1-phenylene)bis(1-((5-methoxy-1H-indol-3-yl)acetyl)-2-pyrrolidinecarboxamide)] |  | EC50 [1]: 100 to 999 nM
CN(C)[C@H](C(=O)N1CCC[C@H]1C(=O)Nc1ccc(-c2cnc(-c3ccc(NC(=O)[C@@H]4CCCN4C(=O)[C@H]([C@H](O)c4ccsc4)N(C)C)cc3)o2)cc1)[C@H](O)c1ccsc1 [JR-16, (S,R,2S)-N,N′-(4,4′-(oxazole-2,5-diyl)bis(4,1-phenylene))bis(1-((2S,3R)-2-(dimethylamino)-3-hydroxy-3-(thiophen-3-yl)propanoyl)pyrrolidine-2-carboxamide)] |  | EC50 (class symbols, read-out: EC50 Range against HCV 1b): 1000 to 10000 nM
O=C(Nc1ccc(-c2nnc(-c3ccc(NC(=O)[C@@H]4CCCN4C(=O)[C@H](O)c4ccccc4)cc3)o2)cc1)[C@@H]1CCCN1C(=O)[C@H](O)c1ccccc1 [RK-16, (2S,2′S)-N,N′-(1,3,4-oxadiazole-2,5-diyldi-4,1-phenylene)bis(1-((2R)-2-hydroxy-2-phenylacetyl)-2-pyrrolidinecarboxamide)] | < 4.57 | EC50 [3]: < 5 nM
C[C@H](NC(=O)c1ccco1)C(=O)Nc1ccc(-c2nnc(-c3ccc(NC(=O)[C@H](C)NC(=O)c4ccco4)cc3)o2)cc1 [RK-21, N,N′-(1,3,4-oxadiazole-2,5-diylbis(4,1-phenyleneimino((2S)-1-oxo-1,2-propanediyl)))di(2-furamide)] | 1000 to 10000 | 
CC(C)(C)OC[C@H](NC(=O)Cc1ccccc1)C(=O)Nc1ccc(-c2cnc(-c3ccc(NC(=O)[C@H](COC(C)(C)C)NC(=O)Cc4ccccc4)cc3)o2)cc1 [JG-16, (2S,2′S)-N,N′-(1,3-oxazole-2,5-diyldi-4,1-phenylene)bis(3-tert-butoxy-2-((phenylacetyl)amino)propanamide)] | 100 to 999 | 
O=C(Nc1ccc(-c2nnc(-c3ccc(NC(=O)[C@@H]4CCCN4C(=O)c4cccc(Cl)n4)cc3)o2)cc1)[C@@H]1CCCN1C(=O)c1cccc(Cl)n1 [RK-12, (2S,2′S)-N,N′-(1,3,4-oxadiazole-2,5-diyldi-4,1-phenylene)bis(1-((6-chloro-2-pyridinyl)carbonyl)-2-pyrrolidinecarboxamide)] | 1000 to 10000 | EC50 [3]: 3960 nM
